# Results taken from article PMC7083565, “In vitro metabolism, reaction phenotyping, enzyme kinetics, CYP inhibition and induction potential of ataluren” (Pharmacology Research & Perspectives, 2020).
# Where two headings read alike, the source gives them in different places.
# Target: T1, UGT1A9 (Homo sapiens, UniProt O60656)
# T1 construct: purchased BD Biosciences; host or cells: baculovirus-infected insect cells
# T1 sequence (O60656 26-530): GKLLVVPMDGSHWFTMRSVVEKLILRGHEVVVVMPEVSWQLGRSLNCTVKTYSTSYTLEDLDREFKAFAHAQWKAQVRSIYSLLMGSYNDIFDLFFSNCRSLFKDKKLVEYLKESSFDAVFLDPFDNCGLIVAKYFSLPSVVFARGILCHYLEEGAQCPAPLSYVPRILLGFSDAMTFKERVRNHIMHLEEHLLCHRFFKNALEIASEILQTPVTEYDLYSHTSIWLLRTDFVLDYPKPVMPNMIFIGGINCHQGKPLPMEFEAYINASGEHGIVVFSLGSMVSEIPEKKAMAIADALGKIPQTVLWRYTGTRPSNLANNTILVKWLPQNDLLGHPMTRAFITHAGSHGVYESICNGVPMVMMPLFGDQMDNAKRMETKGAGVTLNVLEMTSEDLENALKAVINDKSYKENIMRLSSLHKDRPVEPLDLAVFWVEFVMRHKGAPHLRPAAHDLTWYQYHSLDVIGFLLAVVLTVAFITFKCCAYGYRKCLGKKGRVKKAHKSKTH
# Experiment: Ataluren glucuronidation kinetics, recombinant human UGT1A9
# Type: in vitro ADME
# Conditions: for K m / K m, u / V max: mean ± SE; for K m / K m, u / V max / fraction unbound at 15 min: n = 3; for microsomal CLint / fraction unbound at 15 min: human; for microsomal CLint: read-out: CLint,u,UGT; for fraction unbound at 15 min: recombinant human UGT1A9 incubation mixture, mean ± SD, read-out: fu,inc
# Method: Ataluren at 0.5, 2.5, 12.5, 25, 50, 100, 200, and 400 µmol/L, was incubated (n = 3) at 37°C with recombinant human UGT1A9 and with pooled microsomes from human liver, kidney, and intestine (0.025 mg protein/mL, preactivated with alamethicin at 20 µg/mL) in Tris‐HCl buffer (0.1 mol/L, pH 7.5), in the presence of 1 mmol/L EDTA, 5 mmol/L MgCl2, with or without 0.5%, 1%, or 2% BSA. The incubation (100 µL final volume with 0.5% DMSO) was started by adding an equal volume of UDPGA (5 mmol/L) in Tris‐HCl buffer (0.1 mol/L, pH 7.5). After 30 minutes incubation, the incubation mixtures were combined with 0.3 mL of an internal standard solution in acetonitrile with 1% formic acid, followed by membrane plate filtration. The filtrates were used for LC‐MS/MS analysis to quantify the formation of ataluren‐O‐1β‐acyl glucuronide. Detailed LC‐MS/MS conditions are summarized in LC‐MS/MS Analysis section. Ataluren acyl glucuronide formation rate after 30 minutes incubation was calculated using the amount of metabolite formed (pmol) divided by the protein amount in the incubation sample (0.0025 mg) and the incubation time (30 minutes). Ataluren glucuronidation kinetic parameters were determined with and without adjusting BSA binding by nonlinear regression (GraphPad Prism, 5version 5.04, GraphPad Software, Inc.) using Michaelis‐Menten equation which was the best fit compared with other models. The intrinsic clearance was calculated as CLint = Vmax/Km. In order to compare unbound intrinsic clearance by glucuronidation (CLint,u,UGT) in different tissues, CLint,u,UGT was expressed per gram of tissue by correcting the values for the microsomal protein yield, resulting in scaled CLint,u,UGT. Microsomal protein yields of 40.0, 12.8, and 20.6 mg protein/g tissue were used for hepatic, renal, and intestinal data, respectively. ^26
# The high‐throughput membrane ultrafiltration method ^27 was used to determine the fraction unbound in the incubation (n = 3). Incubation mixtures and procedures were essentially the same as the above except that UDPGA (5 mmol/L) was replaced with Tris‐HCl buffer (0.1 mol/L, pH 7.5). After 15 minutes incubation, aliquot was transferred to a Millipore Multiscreen Ultracel‐10 filter plate (10 kDa molecular mass cut off; EMD Millipore). The plate was centrifuged at 37°C and 3710 g. After 30 minutes centrifugation, aliquots of ultrafiltrates and incubation mixtures prior to ultrafiltration were quenched with an internal standard solution in acetonitrile, followed by membrane plate filtration. The filtrates were used for LC‐MS/MS analysis to quantify the concentration of ataluren. The same LC‐MS/MS conditions described above are summarized in LC‐MS/MS Analysis section. The free fraction = Cu/Cm, where Cu is the concentration of ataluren in the ultrafiltrate and Cm is the concentration of ataluren in the incubation system before centrifugation. Unbound Km (Km, u) was recalculated by applying Michaelis‐Menten equation using free ataluren concentrations after correcting BSA binding at each ataluren and BSA concentration level.
# Quantification of ataluren‐O‐1β‐acyl glucuronide formation was conducted on an Accela pump and a PAL autosampler equipped with a TSQ Quantum Ultra mass spectrometer (Thermo Fisher Scientific). A Waters Acquity BEH column (C18, 1.7 µm, 50 × 2.1 mm; Waters Cooperation) was used and maintained at 50°C. The mobile phases were 0.1% formic acid in water (A) and acetonitrile (B). The flow rate was 0.6 mL/min and gradient program was as follows: linear gradient from 0% B to 95% B in 0.5 minutes and hold isocratic at 95% B for 1 minute; linear gradient from 95% B to 0% B in 0.1 minutes and hold isocratic at 0% B for 0.4 minutes. TSQ Quantum Ultra mass spectrometer was equipped with a heated electrospray ionization source operated in negative‐ion mode with a vaporizer temperature of 350°C, capillary temperature of 380°C, and spray voltage of 3 kV. […]
smiles,measurement,setting,value
"O=C(O)c1cccc(-c2noc(-c3ccccc3F)n2)c1 [ataluren, Ataluren]",K m,"UGT1A9, 0% BSA",4.76 ± 0.934 µM
same,"K m, u","UGT1A9, 0% BSA",4.76 ± 0.934 µM
same,V max,"UGT1A9, 0% BSA",1058 ± 31.8 pmol/min/mg
same,K m,"UGT1A9, 0.5% BSA",26.4 ± 2.80 µM
same,"K m, u","UGT1A9, 0.5% BSA",2.71 ± 0.309 µM
same,V max,"UGT1A9, 0.5% BSA",752 ± 20.3 pmol/min/mg
same,K m,"UGT1A9, 1% BSA",45.6 ± 3.83 µM
same,"K m, u","UGT1A9, 1% BSA",2.52 ± 0.243 µM
same,V max,"UGT1A9, 1% BSA",842 ± 23.0 pmol/min/mg
same,K m,"UGT1A9, 2% BSA",83.4 ± 15.3 µM
same,"K m, u","UGT1A9, 2% BSA",2.46 ± 0.498 µM
same,V max,"UGT1A9, 2% BSA",847 ± 56.2 pmol/min/mg
same,microsomal CLint,"recombinant human UGT1A9, pH 7.5, UGT1A9, 0% BSA",222 µL/min/mg
same,microsomal CLint,"recombinant human UGT1A9, pH 7.5, UGT1A9, 0.5% BSA",277 µL/min/mg
same,microsomal CLint,"recombinant human UGT1A9, pH 7.5, UGT1A9, 1% BSA",334 µL/min/mg
same,microsomal CLint,"recombinant human UGT1A9, pH 7.5, UGT1A9, 2% BSA",344 µL/min/mg
same,fraction unbound at 15 min,"pH 7.5, UGT1A9, 0% BSA",1 ± 0.5
same,fraction unbound at 15 min,"pH 7.5, UGT1A9, 0.5% BSA",0.116 ± 0.019
same,fraction unbound at 15 min,"pH 7.5, UGT1A9, 1% BSA",0.064 ± 0.007
same,fraction unbound at 15 min,"pH 7.5, UGT1A9, 2% BSA",0.035 ± 0.003
same,"maximal effect of BSA on CLint,u (increase)","recombinant UGT1A9, with vs without BSA",approximately 1.6 fold
